Test results reported in US20250320261A1, “ANTIBACTERIAL PEPTIDE” (priority 2021, published 2025).
Where two headings read alike, the source gives them in different places. Peptide text beside a SMILES is read from it. * marks the point of attachment. Heptanoyl = CCCCCCC(=O)*; Octanoyl = CCCCCCCC(=O)*; Hexanoyl = CCCCCC(=O)*; Pentanoyl = CCCCC(=O)*

What was measured:
S. aureus = assay: Checkerboard analysis of peptide-antibiotic combinations; type: cell-based, Staphylococcus aureus; conditions: combined with different antibiotics
Description: (§1) The broth microdilution method was used to determine minimal inhibitory concentration (MIC) and minimal bactericidal concentration (MBC). Two-fold serial dilutions of the peptides were used, and the final concentrations ranged from 0.19-100 μM. The effect of peptide-antibiotic combinations was investigated by performing a checkerboard analysis. […] The fractional inhibitory concentration (FIC) and fractional bactericidal concentration (FBC) were calculated by the equation (MIC or MBC of peptide in combination/MIC or MBC of peptide […] alone)+(MIC or MBC of antibiotic in combination/MIC or MBC of antibiotic alone). Synergy was defined as FIC/FBC≤0.5, additive when 0.5<FIC/FBC≤1, indifferent when 1<FIC/FBC<2 and antagonistic when FIC/FBC≥2. All experiments were repeated at least three times.

E. coli = assay: as above; type: cell-based, Escherichia coli; conditions: combined with different antibiotics
Description: as §1

[1] = test system: S. aureus (ATCC 29213, MSSA); type: cell-based, Staphylococcus aureus; conditions: for antimicrobial activity against S. aureus (in words): compared with peptide #6 or the parent lipopeptide
Description: (§2) S. aureus (ATCC 29213, MSSA, ATCC, Manassas, VA) and E. coli (K-12 MG1655) were streaked on Luria-Bertani (LB) agar plates and incubated at 37° C. overnight. Single colonies were inoculated into 5 ml of LB broth and incubated on a shaker (400 rpm) at 37° C. overnight. The bacterial concentrations were determined by viable count and were adjusted to correlate with approximately 10^9 CFU/ml.
as §1

E. coli (K-12 MG1655) = assay: Broth microdilution MIC/MBC; type: cell-based, Escherichia coli; conditions: for antimicrobial activity against E. coli (in words): compared with peptide #6 or the parent lipopeptide
Description: as §2, §1

[2] = test system: HaCaT keratinocytes infected with S. aureus; assay: LDH cytotoxicity and cytokine secretion of S. aureus-infected HaCaT keratinocytes; type: cell-based, human; conditions: 24 h, vs positive control
Description: After 24 hours of exposure to Staphylococcus aureus (MOI=0.1), and three administrations of L-6-C5-N (2.5, 5, 10, 20 and 40 μM) at 1, 5 and 9 hours post infection. (A) Cytotoxicity, LDH levels normalized against negative control. (B) Interleukin-6. (C) Tumor Necrosis Factor-α. (D) CXC motif ligand 8 levels. (−) indicates negative control (uninfected/unstimulated cells), (+) indicates positive control (S. aureus-infected cells). Statistical analysis was done by ANOVA with Tukey's post hoc test. P-values are indicated by *=[…], ***=0.001.
It was evaluated whether the peptide SEQ ID NO:3 having L-amino acids and an acetylation with five carbon atoms at the N-terminal portion (L-6-C5-N) could effectively reduce an inflammatory response to a bacterial infection to HaCaT keratinocytes. After 24 hours of exposure to Staphylococcus aureus (MOI=0.1), and three administrations of L-6-C5-N SEQ ID NO:3 in different concentrations (2.5, 5, 10, 20 and 40 μM) at 1, 5 and 9 hours post infection, a LDH cytotoxicity assay was performed and IL-6, TNF-α and CXCL-8 concentrations were measured. The symbol (−) indicates negative control (uninfected/unstimulated cells), (+) indicates positive control (S. aureus-infected cells).

human erythrocytes = type: cell-based; conditions: red cells of human, 1 h, 100 μM
Description: FIG. 4. Hemolytic activity of SEQ ID NO 1 and SEQ ID NO 3. The hemolytic activity was determined on human erythrocytes (15% suspended in PBS) after exposure to A) SEQ ID NO: 3 with increasing length of fatty acid chains and full length PLNC8 β, B) L-enantiomers of SEQ ID NO: 3 with a fatty acid chain length of 5, 6, and 7 carbon (L-6-C5-N; L-6-C6-N; L-6-C7-N), and L-enantiomers of SEQ ID NO 1 with a fatty acid chain length of 5, 6, and 7 carbon (L-6-C5-N-Leu; L-6-C6-N-Leu; L-6-C7-N-Leu), C) D-enantiomers of SEQ ID NO: 3 with a fatty acid chain length of 5, 6, and 7 carbon (D-6-C5-N; D-6-C6-N; D-6-C7-N), and D-enantiomers of SEQ ID NO: 1 with a fatty acid chain length of 5, 6, and 7 carbon (D-6-C5-N-Leu; D-6-C6-N-Leu; D-6-C7-N-Leu). Erythrocytes were exposed to the peptides using the indicated concentrations for 1 h. […]
The hemolytic activity of the peptides was investigated by collecting blood from healthy volunteers in heparinized vacutainers. […] The plates were incubated for 1 h at 37° C. followed by centrifugation for 5 min at 900×g and absorbance measurement of the supernatants at 540 nm. Hemolytic activity (%) was calculated by subtracting the negative control from all values and normalization against the positive control (0.5% Triton X-100), that was set to 100%. […]

| Compound | MBC E. coli (E. coli (K-12 MG1655); broth microdilution) [µM] | MIC E. coli (E. coli (K-12 MG1655); broth microdilution) [µM] | MBC S. aureus ([1]; ATCC 29213, 20 h) [µM] | MIC S. aureus ([1]; ATCC 29213, 20 h) [µM] | further results |
| --- | --- | --- | --- | --- | --- |
| 6-C2-N: peptide #6 (SEQ ID NO: 3) acetylated with two carbon atoms at the N-terminal (Ac-LGIKILWSAYKHRKTI-NH2) [Peptide 6-C2-N] | – | – | – | – | interaction with antibiotics (FIC/FBC) against S. aureus (S. aureus): additive or synergistic; interaction with antibiotics (FIC/FBC) against E. coli (E. coli): additive or synergistic |
| 6-C5-N: SEQ ID NO:3 having L-amino acids and an acetylation with five carbon atoms at the N-terminal portion (Pentanoyl-LGIKILWSAYKHRKTI-NH2) [Peptide 6-C5-N] | – | – | – | – | antimicrobial activity against S. aureus (in words) [1]: maximum; antimicrobial activity against E. coli (in words) (E. coli (K-12 MG1655)): maximum; interaction with antibiotics (FIC/FBC) against S. aureus (S. aureus): additive or synergistic; interaction with antibiotics (FIC/FBC) against E. coli (E. coli): additive or synergistic; IL-6 secretion, infected HaCaT ([2]; MOI=0.1, 2.5-40 μM at 1, 5 and 9 h post infection): significantly reduced; cell lysis (LDH) of S. aureus-infected HaCaT keratinocytes ([2]; MOI=0.1, 2.5-40 μM given at 1, 5 and 9 h post infection): significantly reduced |
| 6-C6-N: L-enantiomer of SEQ ID NO: 3 with a fatty acid chain length of 6 carbon (Hexanoyl-LGIKILWSAYKHRKTI-NH2; also: C6 fatty acid chain, site not given here) [Peptide 6-C6-N] | – | – | – | – | antimicrobial activity against S. aureus (in words) [1]: maximum; antimicrobial activity against E. coli (in words) (E. coli (K-12 MG1655)): maximum |
| CCCCCCC(=O)N[C@@H](CC(C)C)C(=O)NCC(=O)N[C@H](C(=O)N[C@@H](CCCCN)C(=O)N[C@H](C(=O)N[C@@H](CC(C)C)C(=O)N[C@@H](Cc1c[nH]c2ccccc12)C(=O)N[C@@H](CO)C(=O)N[C@@H](C)C(=O)N[C@@H](Cc1ccc(O)cc1)C(=O)N[C@@H](CCCCN)C(=O)N[C@@H](Cc1c[nH]cn1)C(=O)N[C@@H](CCCNC(=N)N)C(=O)N[C@@H](CCCCN)C(=O)N[C@H](C(=O)N[C@H](C(N)=O)[C@@H](C)CC)[C@@H](C)O)[C@@H](C)CC)[C@@H](C)CC [Peptide 6-C7-N] (Heptanoyl-LGIKILWSAYKHRKTI-NH2) | – | – | – | – | hemolytic activity (human erythrocytes): around 10% |
| CCCCCCCC(=O)N[C@@H](CC(C)C)C(=O)NCC(=O)N[C@H](C(=O)N[C@@H](CCCCN)C(=O)N[C@H](C(=O)N[C@@H](CC(C)C)C(=O)N[C@@H](Cc1c[nH]c2ccccc12)C(=O)N[C@@H](CO)C(=O)N[C@@H](C)C(=O)N[C@@H](Cc1ccc(O)cc1)C(=O)N[C@@H](CCCCN)C(=O)N[C@@H](Cc1c[nH]cn1)C(=O)N[C@@H](CCCNC(=N)N)C(=O)N[C@@H](CCCCN)C(=O)N[C@H](C(=O)N[C@H](C(N)=O)[C@@H](C)CC)[C@@H](C)O)[C@@H](C)CC)[C@@H](C)CC [Peptide 6-C8-N] (Octanoyl-LGIKILWSAYKHRKTI-NH2) | 12.5 | 12.5 | – | – | antimicrobial activity against S. aureus (in words) [1]: did not affect the antimicrobial activity |
| Ac-ILWSAYKHR-NH2 [Peptide S2] | >100 | >100 | – | – | – |
| Ac-KILWSAYKHR-NH2 [Peptide S1] | >100 | >100 | – | – | – |
| Ac-LGIKILRSARKFGKVIEKSF-NH2 [Peptide 15] | >100 | >100 | >100 | >100 | – |
| Ac-LGIKILWSARKFGKVIEKSF-NH2 [Peptide 16] | >100 | >100 | >100 | >100 | – |
| Ac-LGIKILWSAYKHRKTI-NH2 [Peptide 6] | 50 | 50 | – | – | MBC S. aureus ([1]; broth microdilution): 100 µM; MIC S. aureus ([1]; broth microdilution): 100 µM; antimicrobial activity against E. coli (in words) (E. coli (K-12 MG1655)): comparable to the activity of LL-37 |
| Ac-LGQKILRSARKFGKDIEKSF-NH2 [Peptide 14] | >100 | >100 | >100 | >100 | – |
| Ac-LGQKILRSARKFGKTIEKSF-NH2 [Peptide 13] | >100 | >100 | >100 | >100 | – |
| Ac-LLGIKILWKARKFGKVIEKSF-NH2 [Peptide 18] | >100 | 100 | >100 | >100 | – |
| Ac-LLGIKILWSARKFGKVIEKSF-NH2 [Peptide 17] | >100 | >100 | >100 | >100 | – |
| Ac-LWSAYKHR-NH2 [Peptide S3] | >100 | >100 | – | – | – |
| Ac-SVPTSVYTLGIKILWSAYKHRKTIEKSFNKGFYH-NH2 (N-terminus and C-terminus assumed) [PLNC8 β, reference compound] | – | – | – | – | MBC S. aureus ([1]; ATCC 29213): >100 µM; MIC S. aureus ([1]; ATCC 29213): >100 µM; MBC E. coli (E. coli (K-12 MG1655); K-12): >100 µM; MIC E. coli (E. coli (K-12 MG1655); K-12): >100 µM; antimicrobial activity against E. coli (in words) (E. coli (K-12 MG1655)): no activity |
| Ac-TLGIKILWSAYKHRKT-NH2 [Peptide 5] | >100 | >100 | >100 | >100 | – |
| Ac-WSAYK-NH2 [Peptide S6, WSAYK] | >100 | >100 | – | – | – |
| Ac-WSAYKH-NH2 [Peptide S5, WSAYKH] | >100 | >100 | – | – | – |
| Ac-WSAYKHR-NH2 [Peptide S4, WSAYKHR] | >100 | >100 | – | – | – |
| Ac-YTLGIKILWSAYKHRK-NH2 [Peptide 4] | >100 | >100 | >100 | >100 | – |
